Laboratory results reported in patent publication US7981876B2, “Polymorphic and amorphous salt forms of squalamine dilactate” (priority 2005, dated 2011).

Columns and labels:
[1] = Heat stress stability at 70° C. for three days, HPLC with ELSD detection; assay type: physicochemical
Description: Samples of amorphous squalamine dilactate and squalamine dilactate recrystallized from ethanol as described in Example 5 were placed in scintillation vials and heated in an oven at 70° C. for three days. A portion of each heat stressed sample was then analyzed by HPLC with ELSD detection and the results compared with the HPLC analysis of unstressed material.

tails of CD-1®BR mice = assay: Local irritancy of 5-day repeated intravenous injections of squalamine salt forms in mice; assay type: in vivo
From the text: A Study of Local Irritancy of 5-Day Repeated Intravenous Injections of Different Salt Forms (Ditrifluoroacetate, Dilactate, Digluconate, Diacetate) of MSI-1256 (Squalamine) in Mice
Objective: To determine the local irritancy of 5-day repeated daily intravenous doses of squalamine salt forms in tails of CD-1®BR mice.
Material and Methods: (Animals): Forty-eight male CD-1®BR mice (Charles River Lab). Mean body weight at study initiation was 20.6 gm. (Housing Environment): Mice were housed as groups (maximum 10 mice/box) in plastic mouse boxes with hardwood chip bedding and wire lids. They had access to food (Purina Mouse Chow) and water in bottles ad lib. The boxes were housed in isolator racks that were supplied with one-pass through filtered room air. The room in which the animals were housed was on a 12-hour on/12-hour off light cycle and had controlled temperature (range: 67-76° F.) and humidity (range: 40-70% relative humidity).
Solution prep: A 0.36 mg/mL solution of squalamine ditrifluoroacetate salt (equivalent to 0.25 mg/mL squalamine ditrifluroacetate active moiety) was prepared in D5W. A 0.31 mg/mL solution of squalamine diacetate salt (equivalent to 0.25 mg/mL squalamine diacetate active moiety) was prepared in D5W. A 0.33 mg/mL solution of squalamine dilactate salt (equivalent to 0.25 mg/mL squalamine dilactate active moiety) was prepared in D5W. A 0.45 mg/mL solution of squalamine digluconate salt (equivalent to 0.25 mg/mL squalamine digluconate active moiety) was prepared in D5W. A 1.0 mg/mL solution of magainin-2-amide (positive control) was prepared in D5W. Protocol: Mice were randomly assigned to six groups (8 mice/group) and received daily intravenous (i.v.) injections of solutions of D5W or squalamine salts in the tail vein for five days (study days 0, 1, 2, 3, and 4). […] One group of eight mice received test article magainin-2-amide (10 mg/kg/day; 10 mL/kg/day of a 1 mg/mL solution), which was previously determined to be local vein irritant, as a positive control. Mice were not injected with test article if severity of bruising or swelling (edema) warranted the omission of the injection. Survival was monitored and clinical signs were observed daily for five days of administration of squalamine salts and four days after the last dose (Study Day 8). Clinical signs of irritancy, edema, and bruising were made on days 1, 2, 3, and 4 approximately 24-hours after each injection and immediately prior to that day's injection. The pHs of the solutions of all test articles except magainin-2-amide were checked on Study Day 3. (The same solutions were used throughout the study so a similar pH on all study days may be assumed).

[2] = Accelerated stability study (temperature-based, four weeks) of four salt forms, reversed-phase HPLC of o-phthaldialdehyde derivatized samples; assay type: physicochemical
Description: An accelerated stability study (temperature-based) lasting four weeks was performed on squalamine in four different salt forms. The four salt forms were: dihydrochloride, diacetate, dilactate and D-digluconate. The samples were subjected to temperatures of 40° C., 60° C. and 80° C. The following table summarizes the results of % purity of main peak, squalamine, based on total integrated area. The analysis was performed using reversed-phase HPLC of o-phthaldialdehyde derivatized samples.

[3] = Heat Stressed, 70° C. for three days

% purity of main peak, squalamine, based on total integrated area ([2]; 4w 40° C.) [%]	% purity of main peak, squalamine, based on total integrated area ([2]; 4w 60° C.) [%]	% purity of main peak, squalamine, based on total integrated area ([2]; 4w 80° C.) [%]	% purity of main peak, squalamine, based on total integrated area ([2]; T = 0) [%]	Compound	necrotic mouse tail (mice affected/group) (tails of CD-1®BR mice; mouse, in vivo)	other results
				CC(C)[C@@H](CC[C@@H](C)[C@H]1CC[C@H]2[C@@H]3[C@H](O)C[C@H]4C[C@@H](NCCCNCCCCN)CC[C@]4(C)[C@H]3CC[C@]12C)OS(=O)(=O)O.C[C@H](O)C(=O)O.C[C@H](O)C(=O)O [Crystallized Squalamine]		change in the percentage of the lactylamide impurity when heat stressed ([1]; 70° C. for three days vs unstressed): no significant increase; 24 S Isomer [1, 3]: 0.714%; Lacrylamide [1, 3]: 0.087%; Squalamine [1, 3]: 99.168%; 24 S Isomer ([1]; Unstressed): 0.715%; Lacrylamide ([1]; Unstressed): 0.070%; Squalamine ([1]; Unstressed): 99.187%
87.3	81.5	62.9	94.4	squalamine diacetate	1/8	
80.9	80.6	70.9	91.8	squalamine dilactate		stability under increasingly severe conditions ([2]; four weeks at 40-80° C., compared to the diacetate and digluconate salts): surprisingly stable
				squalamine ditrifluoroacetate	1/8	mouse tail fell off (mice affected/group) (tails of CD-1®BR mice; mouse, in vivo): 1/8

Compound	% purity of main peak, squalamine, based on total integrated area ([2]; 4w 40° C.) [%]	% purity of main peak, squalamine, based on total integrated area ([2]; 4w 60° C.) [%]	% purity of main peak, squalamine, based on total integrated area ([2]; 4w 80° C.) [%]	% purity of main peak, squalamine, based on total integrated area ([2]; T = 0) [%]	necrotic mouse tail (mice affected/group) (tails of CD-1®BR mice; mouse, in vivo)	other results
squalamine digluconate	72.6	60.7	4.9	87.8		tolerance of treatment (swelling, bruising, irritation of tails) (tails of CD-1®BR mice; 2.5 mg/kg/day i.v. tail vein for five days, 0.25 mg/mL solutions in D5W, compared with squalamine diacetate and ditrifluoroacetate): tolerated slightly better
